Holding throughout (assay): biochemical
Holding throughout (type): binding

In one experiment the target is SfurOBP11 (Sogatella furcifera, UniProt V5T6E3). The settings on record: SfurOBP11; protein and 1-NPN both 2.0 µM; competitor 2-20 µM; read-out: IC50. How it is done: (§1) Thirty-six rice odorants ([He et al., 2014]; [Wang et al., 2017]) and 1-N-phenyl-naphthylamine (1-NPN) were purchased from Sigma-Aldrich (St Louis, MO, USA). These odorants and 1-NPN were dissolved in high-performance liquid chromatography (HPLC) purify grade methanol for 1.0 mM as work solution.
SfurOBP11, sequence (V5T6E3 entry or part of it): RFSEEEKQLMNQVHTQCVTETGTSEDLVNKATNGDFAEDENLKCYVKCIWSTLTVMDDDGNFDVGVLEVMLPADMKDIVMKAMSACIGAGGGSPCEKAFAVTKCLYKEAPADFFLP
(§2) Fluorescence competitive binding assays were performed on Tecan Spark 10M (Tecan Group Ltd., Männedorf, Switzerland) with the F96 Black ELIAS Plate (Sangon) ([Khuhro et al., 2017]; [Liu et al., 2017]). The solutions were excited at 337 nm and emission spectra were recorded between 390 and 490 nm. First, to test the binding constants of 1-NPN to the SfurOBPs, a 2.0 µM solution of protein in 50 mM Tris-HCl (pH = 7.4) was titrated with 1 mM 1-NPN to achieve virous concentrations. Next, the competitive binding of each odorant was measured using the 1-NPN as fluorescent reporter and odorant as competitor. The concentrations of protein and 1-NPN were both 2.0 µM, the odorant added after protein and 1-NPN added into the well of ELIAS Plate for 2 min. The final concentrations of each competitor were 2, 4, 6, 8, 10, 12, 14, 16, 18 and 20 µM. After 2 min of odorant added, the fluorescence intensity was measured and recorded. The volume of mixed solution in each well was maintained at 250 µL. Each interaction was performed in triplicates.
(§3) GraphPad Prism 7.0 software (GraphPad Software, Inc., La Jolla, CA, USA) was used to calculated and generated the binding constants (K1−NPN) of 1-NPN to SfurOBPs and relative Scatchard plots ([Ban et al., 2003]; [Li et al., 2016]). Dissociation constant (Ki) of each odorant to SfurOBP was computed from the corresponding IC50 value (the half maximal inhibitory concentration), using the following equation: Ki=[IC50]/(1 + [1-NPN]/K1−NPN), where [1-NPN] is the free concentration of 1-NPN and K1−NPN is the dissociation constant of the complex protein/1-NPN.

For the next experiment, the target named is SfurOBP3 (Sogatella furcifera, UniProt V5T818). The note with it: SfurOBP3; protein and 1-NPN both 2.0 µM; competitor 2-20 µM; read-out: IC50. How it is done:
as §1, §2, §3

A further experiment has as its target SfurOBP2 (Sogatella furcifera, UniProt V5T759). The note with it: SfurOBP2; protein and 1-NPN both 2.0 µM; competitor 2-20 µM; read-out: IC50. How it is done:
as §1, §2, §3

The target in the next experiment is SfurOBP1 (Sogatella furcifera, UniProt V5T8N5). The settings on record: SfurOBP1; protein and 1-NPN both 2.0 µM; competitor 2-20 µM; read-out: IC50. How it is done:
as §1, §2, §3

This is an account of results in paper PMC6409085, “Three odorant-binding proteins are involved in the behavioral response of Sogatella furcifera to rice plant volatiles” (PeerJ, 2019).

SfurOBP2, sequence (V5T759 entry or part of it): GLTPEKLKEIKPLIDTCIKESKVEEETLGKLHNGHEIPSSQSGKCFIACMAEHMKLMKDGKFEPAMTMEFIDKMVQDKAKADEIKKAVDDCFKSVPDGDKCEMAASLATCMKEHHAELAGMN
SfurOBP1, sequence (V5T8N5 entry or part of it): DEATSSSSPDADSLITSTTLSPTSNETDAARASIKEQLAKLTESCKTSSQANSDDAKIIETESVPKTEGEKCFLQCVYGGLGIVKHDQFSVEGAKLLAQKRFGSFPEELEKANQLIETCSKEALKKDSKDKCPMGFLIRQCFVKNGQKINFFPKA
SfurOBP3, sequence (V5T818 entry or part of it): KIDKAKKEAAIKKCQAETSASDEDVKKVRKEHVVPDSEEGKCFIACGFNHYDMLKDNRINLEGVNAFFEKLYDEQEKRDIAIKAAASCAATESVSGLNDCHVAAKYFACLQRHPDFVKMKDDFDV

For orientation: IC50 means the point on the concentration scale where inhibition reaches its midpoint. `Cc1cc(C(C)(C)C)c(O)c(C(C)(C)C)c1` [2,6-di-tert-butyl-4-methylphenol]: the IC50 at SfurOBP11 is 18 µM; on SfurOBP3, over 20 µM; at SfurOBP2, over 20 µM; at SfurOBP1, over 20 µM.
